Source: the NIST ThermoML archive (doi:10.1016/j.tca.2015.04.027)

How the values were obtained:
[1] = xn = mol fraction of the nth substance listed; settings: 87 kPa, Liquid, Vibrating tube method
[2] = 87 kPa, Liquid, Vibrating tube method

OC(CCl)CCl [1,3-dichloro-2-propanol] + CCOS(=O)(=O)[O-].CCn1cc[n+](C)c1
mass density [kg/m3], [1]
Settings	298.15 K	303.15 K	308.15 K	313.15 K	318.15 K
x1 = 0.0638	1239	1235.7	1232.4	1229	1225.55
x1 = 0.1199	1241.65	1238.3	1234.9	1231.6	1228.1
x1 = 0.2073	1246.7	1243.39	1239.87	1236.36	1232.86
x1 = 0.2973	1252.5	1249.05	1245.5	1241.9	1238.2
x1 = 0.3964	1259.8	1256.2	1252.5	1248.7	1245.1
x1 = 0.505	1269.3	1265.55	1261.5	1257.6	1253.9
x1 = 0.6616	1286.79	1282.36	1278.15	1274	1270
x1 = 0.7527	1300	1295.49	1291.17	1286.8	1282.3
x1 = 0.8236	1313	1308.44	1304	1299.5	1294.6
x1 = 0.9012	1329.59	1324.72	1319.69	1314.64	1309.58
x1 = 0.9645	1346	1340.45	1335.3	1329.4	1323.7
x1 = 1	1356.46	1350.55	1344.61	1338.56	1332.47

CCOS(=O)(=O)[O-].CCn1cc[n+](C)c1 [1-ethyl-3-methylimidazolium ethyl sulfate]
[2]
Settings	mass density [kg/m3]
298.15 K	1236.42
303.15 K	1233.09
308.15 K	1229.72
313.15 K	1226.36
318.15 K	1223

C=CCO [2-propenol]
[2]
Settings	mass density [kg/m3]
298.15 K	850.4
303.15 K	846.02
308.15 K	841.59
313.15 K	837.13
318.15 K	832.63

OC(CCl)CCl [1,3-dichloro-2-propanol] + C=CCO
mass density [kg/m3], [1]
Settings	298.15 K	303.15 K	308.15 K	313.15 K	318.15 K
x1 = 0.0927	914.27	909.73	905.11	900.45	895.75
x1 = 0.1927	978.2	973.46	968.64	963.78	958.88
x1 = 0.2704	1024.81	1019.93	1014.97	1009.97	1004.93
x1 = 0.3548	1072.33	1067.35	1062.2	1057.06	1051.87
x1 = 0.4555	1125.39	1120.22	1114.94	1109.64	1104.29
x1 = 0.4973	1146.3	1141.05	1135.75	1130.35	1124.95
x1 = 0.6062	1198.1	1192.65	1187.2	1181.65	1176.1
x1 = 0.7166	1246.88	1241.35	1235.7	1230.01	1224.28
x1 = 0.8004	1281.46	1275.78	1270	1264.19	1258.35
x1 = 0.8893	1316.06	1310.26	1304.41	1298.46	1292.49
x1 = 0.9452	1336.81	1330.96	1325.07	1319.07	1313.05
x1 = 1	1356.46	1350.55	1344.61	1338.56	1332.47
